Publication PMC4635624, “In vitro and in vivo single-agent efficacy of checkpoint kinase inhibition in acute lymphoblastic leukemia” (Journal of Hematology & Oncology, 2015)
“And” between values parts separate entries of the source, which are not always exact repeats. Identical values can stand only once.

What was measured:
[1] = test system: B/T-ALL cell lines (BV-173, SUP-B15, REH, NALM-6, NALM-19, MOLT-4, RPMI-8402, CCRF-CEM); assay: Gene expression profiling (Affymetrix GeneChip Human Gene 1.0 ST); format: cell-based
Procedure: In order to identify gene expression changes specifically correlated with Chk1 inhibition and to better elucidate the mechanism of action of Chk1 inhibitor, gene expression profiling (GEP) analysis was performed by microarray on treated B/T-ALL cell lines (BV-173, SUP-B15, REH, NALM-6, NALM-19, MOLT-4, RPMI-8402, and CCRF-CEM) and on their untreated counterparts (DMSO 0.1 %) after 24 h of drug exposure. […] To identify peculiar critical pathways affected by Chk1 inhibition, the differentially expressed genes were analyzed in terms of biological function using the MetaCore pathway mapping software (GeneGo Inc.) which categorizes genes in pathway maps, Gene Ontology (GO) cellular processes, and cellular and molecular process networks. Consistent with a Chk1’s mechanism of action, the three top scored maps (map with the lowest p value) were “cell cycle: estrogen receptor 1 (ESR1) regulation of G1/S transition” including c-Jun/c-Fos, cyclin A, CARM1, Skp2/TrCP/FBXW, SKP2, c-Fos, CDK4, NCOA3, c-Jun, and CDK2 genes (Additional file 1: Figure S5); “apoptosis and survival: granzyme A signaling” including PHAP1, Ku70/80, Ku80, Ku70, histone H3, NDPK A, SET, histone H2B, and histone H1 genes (Additional file 1: Figure S6); and “DNA damage: ATM/ATR regulation of G1/S checkpoint” including PCNA, growth arrest and DNA damage 45 alpha (GADD45a), Chk2, cyclin A, NF-kB, cyclin-dependent kinase 4 (CDK4), FANCD2, Claspin, and CDK2 genes (Additional file 1: Figure S7). GO cellular processes highlighted 617 genes involved in cellular metabolic process (Additional file 3). Finally, the three top scored process networks impaired by the treatment with Chk1 inhibitor were as follows: the DNA damage checkpoint, the S phase of cell cycle, and the apoptosis, confirming the specificity of treatment on its target pathways (Additional file 4). […] Due to its implication in the regulation of the cell cycle and apoptosis, Western blot analysis against c-Jun was performed to better comprehend its biological role in response to PF-00477736. c-Jun is a component of the transcription factor activating protein-1 (AP-1) which is involved in cell cycle progression through the G1 phase by the regulation of the cyclin D1 [28]. […] The data found in the gene expression profile analysis were validated using qPCR.
Gene expression profiling on treated and untreated cells (DMSO 0.1 %) after 24 h of exposure to PF-0077736 was performed using Affymetrix GeneChip Human Gene 1.0 ST platform (Affymetrix Inc. Santa Clara, CA, USA) and following manufacturers’ instructions. Raw data were normalized by using the RMA algorithm and filtered. Genes differentially expressed were selected by analysis of variance (ANOVA) (p value threshold =0.05) using the Partek Genomics Suite software (Partek Incorporated Saint Louis, MO, USA; http://www.partek.com).

[2] = test system: c-Jun in B-/T-ALL cell lines; assay: Western blot against c-Jun; format: cell-based, human; conditions: after treatment; response heterogeneous in T-ALL cell lines
Procedure: In order to identify gene expression changes specifically correlated with Chk1 inhibition and to better elucidate the mechanism of action of Chk1 inhibitor, gene expression profiling (GEP) analysis was performed by microarray on treated B/T-ALL cell lines (BV-173, SUP-B15, REH, NALM-6, NALM-19, MOLT-4, RPMI-8402, and CCRF-CEM) and on their untreated counterparts (DMSO 0.1 %) after 24 h of drug exposure. […] To identify peculiar critical pathways affected by Chk1 inhibition, the differentially expressed genes were analyzed in terms of biological function using the MetaCore pathway mapping software (GeneGo Inc.) which categorizes genes in pathway maps, Gene Ontology (GO) cellular processes, and cellular and molecular process networks. […] Finally, the three top scored process networks impaired by the treatment with Chk1 inhibitor were as follows: the DNA damage checkpoint, the S phase of cell cycle, and the apoptosis, confirming the specificity of treatment on its target pathways (Additional file 4). […]
To gain insight into the molecular mechanisms responsible for cell death following treatment, functional analyses by Western blot were performed. […] Finally, all these antibodies were detected using the enhanced chemiluminescence kit ECL (GE) and the compact darkroom ChemiDoc-It (UVP).

## Cn1cc(-c2[nH]c3cc(NC(=O)[C@H](N)C4CCCCC4)cc4c3c2C=NNC4=O)cn1 [PF-00477736]
[1]; transcript ID 7899436, 24 h, up-regulated
  Fold-Change (PF-00477736 vs. DMSO), SESN2: 2.221
[1]; transcript ID 7899502, 24 h, up-regulated
  Fold-Change (PF-00477736 vs. DMSO), RNU11: 2.283
[1]; transcript ID 7902227, 24 h, up-regulated
  Fold-Change (PF-00477736 vs. DMSO), GADD45A: 2.163
[1]; transcript ID 7905067, 24 h, up-regulated
  Fold-Change (PF-00477736 vs. DMSO), HIST2H4A: 3.531
[1]; transcript ID 7908917, 24 h, up-regulated
  Fold-Change (PF-00477736 vs. DMSO), BTG2: 2.0536
[1]; transcript ID 7909610, 24 h, up-regulated
  Fold-Change (PF-00477736 vs. DMSO), ATF3: 2.764
[1]; transcript ID 7916609, 24 h, up-regulated
  Fold-Change (PF-00477736 vs. DMSO), JUN: 5.3469
[1]; transcript ID 7919584, 24 h, up-regulated
  Fold-Change (PF-00477736 vs. DMSO), HIST2H2BF: 2.188
[1]; transcript ID 7919606, 24 h, up-regulated
  Fold-Change (PF-00477736 vs. DMSO), HIST2H2BF: 2.022
[1]; transcript ID 7919627, 24 h, up-regulated
  Fold-Change (PF-00477736 vs. DMSO), HIST2H4A: 3.531
[1]; transcript ID 7922717, 24 h, up-regulated
  Fold-Change (PF-00477736 vs. DMSO), RGS16: 2.4
[1]; transcript ID 7930074, 24 h, up-regulated
  Fold-Change (PF-00477736 vs. DMSO), NFKB2: 2.262
[1]; transcript ID 7931810, 24 h, up-regulated
  Fold-Change (PF-00477736 vs. DMSO), KLF6: 2.17 and 2.174
[1]; transcript ID 7937079, 24 h, down-regulated
  Fold-Change (PF-00477736 vs. DMSO), BNIP3: -2.2734
[1]; transcript ID 7940582, 24 h, up-regulated
  Fold-Change (PF-00477736 vs. DMSO), BEST1: 2.3629
[1]; transcript ID 7958262, 24 h, up-regulated
  Fold-Change (PF-00477736 vs. DMSO), TCP11L2: 2.209
[1]; transcript ID 7961075, 24 h, up-regulated
  Fold-Change (PF-00477736 vs. DMSO), CD69: 3.17
[1]; transcript ID 7962884, 24 h, up-regulated
  Fold-Change (PF-00477736 vs. DMSO), RND1: 2.096
[1]; transcript ID 7964460, 24 h, up-regulated
  Fold-Change (PF-00477736 vs. DMSO), DDIT3: 3.32 and 3.325
[1]; transcript ID 7975779, 24 h, up-regulated
  Fold-Change (PF-00477736 vs. DMSO), FOS: 2.40 and 2.404
[1]; transcript ID 7982868, 24 h, up-regulated
  Fold-Change (PF-00477736 vs. DMSO), CHAC1: 2.1
[1]; transcript ID 7997740, 24 h, up-regulated
  Fold-Change (PF-00477736 vs. DMSO), MAP1LC3B: 2.05
[1]; transcript ID 8013660, 24 h, down-regulated
  Fold-Change (PF-00477736 vs. DMSO), ALDOC: -2.184
[1]; transcript ID 8019804, 24 h, up-regulated
  Fold-Change (PF-00477736 vs. DMSO), ROCK1P1: 2.468
[1]; transcript ID 8030128, 24 h, up-regulated
  Fold-Change (PF-00477736 vs. DMSO), PPP1R15A: 2.884
[1]; transcript ID 8060344, 24 h, up-regulated
  Fold-Change (PF-00477736 vs. DMSO), TRIB3: 2.719
[1]; transcript ID 8063386, 24 h, up-regulated
  Fold-Change (PF-00477736 vs. DMSO), CEBPB: 2.112
[1]; transcript ID 8081386, 24 h, up-regulated
  Fold-Change (PF-00477736 vs. DMSO), NFKBIZ: 2.098
[1]; transcript ID 8095680, 24 h, up-regulated
  Fold-Change (PF-00477736 vs. DMSO), IL8: 2.299
[1]; transcript ID 8108370, 24 h, up-regulated
  Fold-Change (PF-00477736 vs. DMSO), EGR1: 2.571
[1]; transcript ID 8113073, 24 h, up-regulated
  Fold-Change (PF-00477736 vs. DMSO), ARRDC3: 2.177
[1]; transcript ID 8124484, 24 h, up-regulated
  Fold-Change (PF-00477736 vs. DMSO), HIST1H2BJ: 2.658
[1]; transcript ID 8124518, 24 h, up-regulated
  Fold-Change (PF-00477736 vs. DMSO), HIST1H2AJ: 5.146
[1]; transcript ID 8124540, 24 h, up-regulated
  Fold-Change (PF-00477736 vs. DMSO), HIST1H2AM: 2.131
[1]; transcript ID 8124848, 24 h, up-regulated
  Fold-Change (PF-00477736 vs. DMSO), IER3: 2.508
[1]; transcript ID 8178435, 24 h, up-regulated
  Fold-Change (PF-00477736 vs. DMSO), IER3: 2.417
[1]; transcript ID 8179704, 24 h, up-regulated
  Fold-Change (PF-00477736 vs. DMSO), IER3: 2.508
[1]; treated vs DMSO 0.1 %, 24 h, 44 % of 941
  upregulated genes: 413 genes
[1]; treated vs DMSO 0.1 %, 24 h, 56 % of 941
  down-modulated genes: 528 genes
[1]; treated vs DMSO 0.1 %, 24 h of drug exposure
  differentially expressed genes (p < 0.05): 941 genes
[2]
  c-Jun protein levels: c-Jun protein levels increased in all B-ALL cell lines
